16 compounds from US20240287070A1, “FUSED HETEROCYCLIC DERIVATIVES” (Janssen Sciences Ireland Unlimited Company, priority 2021, published 2024) can be followed below.

The test system of series [1] is HBV (HepG2.117 cell line, inducibly HBV producing). The series can be described thus: Anti-HBV activity, intracellular HBV DNA by real-time PCR in HepG2.117 cell line. Format: cell-based, hepatitis B virus. The following applies: HepG2.117 cells, 3 days of treatment. Summed up:
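Inducible HBV-producing HepG2.117 line (Tet-off); 3-day exposure to serially diluted compound after induction; real-time PCR of intracellular viral DNA.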
In general terms: Real-time PCR tracks product formation cycle by cycle.

Series [2] can be described thus: Cytotoxicity, ATPlite Luminescence Assay. The class given is cell-based, human. The following applies: human, HepG2 or HepG2.117 cells, 3-days incubation unless marked with *. Summed up: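 Viability after compound treatment is read as ATP luminescence. Exposure lasts 3 or 4 days.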
Series [3] can be described thus: Human liver microsome stability. The following applies: human, pooled human liver microsomes, pH 7.4, pooled human liver microsomes 0.5 mg/mL, 1 μM compound, NADPH 1 mM, 37° C., 0-60 min; read-out: HLM Metabolism t1/2. The class given is in vitro ADME. Summed up:
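Single incubations with human liver microsomes started with 1 mM NADPH; samples taken at 0, 5, 10, 20, 40 and 60 min, quenched in acetonitrile (1:3). Cassette LC-MS analysis with internal standard; t½ derived from slope of ln peak-area ratio versus time (k = −gradient).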
For orientation: Liver microsomes are a subcellular fraction often used to study metabolism.

Where [4] appears, read: Hepatitis B virus, HepG2.117, 72 h.

A value given as a limit tells only on which side of the number the result lay.

What is called EC50 is the midpoint of the concentration-response curve. High values mean weaker potency, low ones greater potency. The term CC50 denotes the concentration giving 50% cytotoxicity. Read a high CC50 as lower toxicity to the cells. On to `CN=[S@@](C)(=O)c1ccc([C@H](C)N2C[C@@H](C)n3nc4c(c3C2=O)CN(C(=O)c2ccc(Cl)c(Cl)c2)[C@H](C)C4)cn1` (relative stereo) [Compound 29D, (3R,7R)-2-(3,4-dichlorobenzoyl)-9-((S*)-1-(6-((S*)—N,S-dimethylsulfonimidoyl)pyridin-3-yl)ethyl)-3,7-dimethyl-1,2,3,4,8,9-hexahydropyrido[4′,3′:3,4]pyrazolo[1,5-a]pyrazin-10(7H)-one], for which the EC50 in series [1] (setting [4]) was determined as 0.059 µM. Besides, the CC50 at 3 days in series [2] was over 50 µM. Moreover, in series [3], the half-life at 1 μM is 1.25 h.

For `C[C@@H]1Cc2nn3c(c2CN1C(=O)c1ccc(Cl)c(C#N)c1)C(=O)N([C@@H](C)c1ccc(OC(F)F)cc1)C[C@@H]3C` (relative stereo) [Compound 1B, 2-Chloro-5-((3R,7S*)-9-((S*)-1-(4-(difluoromethoxy)phenyl)ethyl)-3,7-dimethyl-10-oxo-1,2,3,4,7,8,9,10-octahydropyrido[4′,3′:3,4]pyrazolo[1,5-a]pyrazine-2-carbonyl)benzonitrile], a half-maximal effect in series [1] (setting [4]) (EC50) was put at 1.49 µM. The compound further had a CC50 at 3 days in series [2] of over 50 µM. In addition, the half-life at 1 μM in series [3] was 0.612 h.

In series [1], `CC(c1ccc(C(C)(C)O)nc1)N1C[C@@H](C)n2nc3c(c2C1=O)CN(C(=O)c1ccc(Cl)c(F)c1)[C@H](C)C3` (single isomer, unassigned) [Compound 59A, (3R,7R)-2-(4-chloro-3-fluorobenzoyl)-9-((R*)-1-(6-(2-hydroxypropan-2-yl)pyridin-3-yl)ethyl)-3,7-dimethyl-1,2,3,4,8,9-hexahydropyrido[4′,3′:3,4]pyrazolo[1,5-a]pyrazin-10(7H)-one] had a half-maximal effective concentration (EC50) of 0.51 µM. Also, in series [2], the CC50 at 3 days was over 50 µM. The half-life at 1 μM in series [3] was over 3 h.

Regarding `CNC(=O)C(c1ccc(OC(F)F)cc1)N1C[C@@H](C)n2nc3c(c2C1=O)CN(C(=O)c1ccc(Cl)c(Cl)c1)[C@H](C)C3` (single isomer, unassigned) [Compound 23A, (R*)-2-((3R,7R)-2-(3,4-dichlorobenzoyl)-3,7-dimethyl-10-oxo-1,3,4,7,8,10-hexahydropyrido[4′,3′:3,4]pyrazolo[1,5-a]pyrazin-9(2H)-yl)-2-(4-(difluoromethoxy)phenyl)-N-methylacetamide], the EC50 in series [1] was 0.066 µM. In series [2], this compound returned a 50% cytotoxic concentration (CC50) at 3 days of 32.1 µM. For the same compound, the half-life at 1 μM in series [3] was 1.88 h.

Regarding `CC(c1nnc(C2CC2)o1)N1C[C@@H](C)n2nc3c(c2C1=O)CN(C(=O)c1ccc(Cl)c(Cl)c1)[C@H](C)C3` (single isomer, unassigned) [Compound 44A, (3R,7R)-9-((R*)-1-(5-cyclopropyl-1,3,4-oxadiazol-2-yl)ethyl)-2-(3,4-dichlorobenzoyl)-3,7-dimethyl-1,2,3,4,8,9-hexahydropyrido[4′,3′:3,4]pyrazolo[1,5-a]pyrazin-10(7H)-one], in series [1], the EC50 came out at 0.22 µM. The same compound displayed a CC50 at 3 days in series [2] of over 50 µM. Also, the half-life at 1 μM in series [3] is over 3 h.

Turning to `CC(c1cn(C2CC2)c(=O)cn1)N1C[C@@H](C)n2nc3c(c2C1=O)CN(C(=O)c1ccc(Cl)c(Cl)c1)[C@H](C)C3` (single isomer, unassigned) [Compound 56A, (3R,7R)-9-((R*)-1-(4-cyclopropyl-5-oxo-4,5-dihydropyrazin-2-yl)ethyl)-2-(3,4-dichlorobenzoyl)-3,7-dimethyl-1,2,3,4,8,9-hexahydropyrido[4′,3′:3,4]pyrazolo[1,5-a]pyrazin-10(7H)-one], the EC50 in series [1] is 0.29 µM. In series [2], this compound came in with a CC50 at 3 days of over 50 µM. Moreover, the half-life at 1 μM in series [3] was over 3 h.

As to `CC(c1ccn(CC(F)(F)F)n1)N1C[C@@H](C)n2nc3c(c2C1=O)CN(C(=O)c1ccc(Cl)c(C#N)c1)[C@H](C)C3` (single isomer, unassigned) [Compound 42B, 2-chloro-5-((3R,7R)-3,7-dimethyl-10-oxo-9-((S*)-1-(1-(2,2,2-trifluoroethyl)-1H-pyrazol-3-yl)ethyl)-1,2,3,4,7,8,9,10-octahydropyrido[4′,3′:3,4]pyrazolo[1,5-a]pyrazine-2-carbonyl)benzonitrile], in series [1] (setting [4]), a half-maximal response (EC50) required 0.06 µM. Further, the CC50 at 3 days in series [2] was over 50 µM. For the same compound, in series [3], the half-life at 1 μM was over 3 h.

In series [1] (setting [4]), `CC(c1cnc(C(F)(F)F)cn1)N1C[C@@H](C)n2nc3c(c2C1=O)CN(C(=O)c1ccc(Cl)c(C#N)c1)[C@H](C)C3` (single isomer, unassigned) [Compound 10B, 2-Chloro-5-((3R,7R)-3,7-dimethyl-10-oxo-9-((S*)-1-(5-(trifluoromethyl)pyrazin-2-yl)ethyl)-1,2,3,4,7,8,9,10-octahydropyrido[4′,3′:3,4]pyrazolo[1,5-a]pyrazine-2-carbonyl)benzonitrile] showed an EC50 of 0.087 µM. This compound also had a half-maximal cytotoxic concentration (CC50) at 3 days in series [2] of over 50 µM. In addition, the half-life at 1 μM in series [3] was over 3 h.

In turn, `CC(c1cc(F)c(=O)n(C)c1)N1C[C@@H](C)n2nc3c(c2C1=O)CN(C(=O)c1ccc(Cl)c(Cl)c1)[C@H](C)C3` (single isomer, unassigned) [Compound 45B, (3R,7R)-2-(3,4-dichlorobenzoyl)-9-((S*)-1-(5-fluoro-1-methyl-6-oxo-1,6-dihydropyridin-3-yl)ethyl)-3,7-dimethyl-1,2,3,4,8,9-hexahydropyrido[4′,3′:3,4]pyrazolo [1,5-a]pyrazin-10(7H)-one] came in with an EC50 in series [1] (setting [4]) of 0.027 µM. This compound also registered a cytotoxic concentration (CC50) at 3 days in series [2] of over 50 µM. For the same compound, the half-life at 1 μM in series [3] is over 3 h.

As for `CC(c1ccn(CC(F)(F)F)c(=O)c1)N1C[C@@H](C)n2nc3c(c2C1=O)CN(C(=O)c1ccc(Cl)c(Cl)c1)[C@H](C)C3` (single isomer, unassigned) [Compound 51A, (3R,7R)-2-(3,4-dichlorobenzoyl)-3,7-dimethyl-9-((R*)-1-(2-oxo-1-(2,2,2-trifluoroethyl)-1,2-dihydropyridin-4-yl)ethyl)-1,2,3,4,8,9-hexahydropyrido[4′,3′:3,4]pyrazolo[1,5-a]pyrazin-10(7H)-one], the response in series [1] was half-maximal at 0.06 µM (EC50). The CC50 at 3 days in series [2] is over 50 µM. Besides, the half-life at 1 μM in series [3] is over 3 h.

In turn, `C[C@@H]1Cc2nn3c(c2CN1C(=O)c1ccc(Cl)c(Cl)c1)C(=O)N([C@@H](C)c1ccc([S@](C)(=N)=O)cc1)C[C@H]3C` (relative stereo) [Compound 18C, (3R,7R)-2-(3,4-dichlorobenzoyl)-3,7-dimethyl-9-((S*)-1-(4-((R*)—S-methylsulfonimidoyl)phenyl)ethyl)-1,2,3,4,8,9-hexahydropyrido[4′,3′:3,4]pyrazolo[1,5-a]pyrazin-10(7H)-one] gave an EC50 in series [1] (setting [4]) of 0.03 µM. The same compound yielded a half-maximal cytotoxic concentration (CC50) at 3 days in series [2] of over 50 µM. In addition, in series [3], the half-life at 1 μM was over 3 h.

In turn, `CNC(=O)c1ccc(C(C)N2C[C@@H](C)n3nc4c(c3C2=O)CN(C(=O)c2ccc(Cl)c(Cl)c2)[C@H](C)C4)cn1` (single isomer, unassigned) [Compound 24A, 5-((R*)-1-((3R,7R)-2-(3,4-dichlorobenzoyl)-3,7-dimethyl-10-oxo-1,3,4,7,8,10-hexahydropyrido[4′,3′:3,4]pyrazolo[1,5-a]pyrazin-9(2H)-yl)ethyl)-N-methylpicolinamide] showed a 50% effective concentration (EC50) in series [1] (setting [4]) of 0.038 µM. For the same compound, the CC50 at 3 days in series [2] is over 50 µM. Further, the half-life at 1 μM in series [3] was over 3 h.

The compound `CC(c1ccnc(OC(F)F)c1)N1C[C@@H](C)n2nc3c(c2C1=O)CN(C(=O)c1ccc(Cl)c(C(F)(F)F)c1)[C@H](C)C3` (single isomer, unassigned) [Compound 50A, (3R,7R)-2-(4-chloro-3-(trifluoromethyl)benzoyl)-9-((R*)-1-(2-(difluoromethoxy)pyridin-4-yl)ethyl)-3,7-dimethyl-1,2,3,4,8,9-hexahydropyrido[4′,3′:3,4]pyrazolo[1,5-a]pyrazin-10(7H)-one] had a concentration for a half-maximal effect (EC50) in series [1] of 0.066 µM. It took 12.5 µM to reach half-maximal cytotoxicity in series [2] (CC50 at 3 days). For the same compound, the half-life at 1 μM in series [3] is over 3 h.

For the compound `CN=[S@](C)(=O)c1ccc([C@H](C)N2C[C@@H](C)n3nc4c(c3C2=O)CN(C(=O)c2ccc(Cl)c(Cl)c2)[C@H](C)C4)cn1` (relative stereo) [Compound 29C, (3R,7R)-2-(3,4-dichlorobenzoyl)-9-((S*)-1-(6-((R*)—N,S-dimethylsulfonimidoyl)pyridin-3-yl)ethyl)-3,7-dimethyl-1,2,3,4,8,9-hexahydropyrido[4′,3′:3,4]pyrazolo[1,5-a]pyrazin-10(7H)-one], the EC50 in series [1] (setting [4]) is 0.051 µM. Further, the CC50 at 3 days in series [2] was over 50 µM. Moreover, the half-life at 1 μM in series [3] amounted to 1.43 h.

In series [1], `CC(c1ccc(C(C)(C)O)nc1)N1C[C@@H](C)n2nc3c(c2C1=O)CN(C(=O)c1cc(C(F)(F)F)c(Cl)cn1)[C@H](C)C3` (single isomer, unassigned) [Compound 58A, (3R,7R)-2-(5-chloro-4-(trifluoromethyl)picolinoyl)-9-((R*)-1-(6-(2-hydroxypropan-2-yl)pyridin-3-yl)ethyl)-3,7-dimethyl-1,2,3,4,8,9-hexahydropyrido[4′,3′:3,4]pyrazolo[1,5-a]pyrazin-10(7H)-one] yielded a concentration giving a half-maximal response (EC50) of over 2.5 µM. Further, the CC50 at 3 days in series [2] was over 50 µM. In addition, the half-life at 1 μM in series [3] is over 3 h.

With `Cc1nnn(-c2ccc(C(C)N3C[C@@H](C)n4nc5c(c4C3=O)CN(C(=O)c3ccc(Cl)c(Cl)c3)[C@H](C)C5)cn2)n1` (single isomer, unassigned) [Compound 26A, (3R,7R)-2-(3,4-dichlorobenzoyl)-3,7-dimethyl-9-((R*)-1-(6-(5-methyl-2H-tetrazol-2-yl)pyridin-3-yl)ethyl)-1,2,3,4,8,9-hexahydropyrido[4′,3′:3,4]pyrazolo[1,5-a]pyrazin-10(7H)-one], the midpoint of the response in series [1], the EC50, lay at 0.14 µM. This compound showed a CC50 at 3 days in series [2] of over 50 µM. Besides, in series [3], the half-life at 1 μM came to 1.38 h.
